Paper PMC11167047 (Cell Death Discovery, 2024)

Columns and labels:
Experiment in all cases: kinome screen (33PanQinase)
Type in all cases: biochemical
PKCγ = biological target: T1, PKCγ (Homo sapiens, UniProt P05129)
T1 construct: purchased Reaction Biology Europe GmbH (formerly ProQinase)
Method: (§1) The Kinome Screening was performed by Reaction Biology Europe GmbH (http://reactionbiology.com; Freiburg i. Br., Germany).

CDK5/p35NCK = biological target: T2, CDK5/p35NCK (Homo sapiens, UniProt Q00535)
T2 construct: purchased Reaction Biology Europe GmbH (formerly ProQinase)
T2 sequence (Q00535 whole entry): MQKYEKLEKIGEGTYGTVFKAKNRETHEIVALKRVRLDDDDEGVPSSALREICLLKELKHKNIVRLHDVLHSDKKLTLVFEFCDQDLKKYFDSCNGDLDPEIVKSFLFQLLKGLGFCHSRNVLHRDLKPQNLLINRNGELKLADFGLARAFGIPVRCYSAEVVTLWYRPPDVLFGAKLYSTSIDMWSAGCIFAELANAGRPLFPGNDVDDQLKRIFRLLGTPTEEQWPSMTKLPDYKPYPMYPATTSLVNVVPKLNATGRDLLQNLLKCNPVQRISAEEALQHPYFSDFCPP
T2 sequence (Q15078 whole entry partner): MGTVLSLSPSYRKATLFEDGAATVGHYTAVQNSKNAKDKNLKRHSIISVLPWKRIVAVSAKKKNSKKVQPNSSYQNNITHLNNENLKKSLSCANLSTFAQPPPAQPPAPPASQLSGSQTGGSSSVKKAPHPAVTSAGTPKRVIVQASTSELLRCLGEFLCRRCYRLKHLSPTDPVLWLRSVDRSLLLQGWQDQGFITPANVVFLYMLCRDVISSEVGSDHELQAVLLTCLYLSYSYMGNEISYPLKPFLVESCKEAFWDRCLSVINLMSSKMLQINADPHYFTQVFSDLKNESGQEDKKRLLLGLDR
Method: as §1

TBK1 = biological target: T3, TBK1 (Homo sapiens, UniProt Q9UHD2)
T3 construct: purchased Reaction Biology Europe GmbH (formerly ProQinase)
T3 sequence (Q9UHD2 1-729): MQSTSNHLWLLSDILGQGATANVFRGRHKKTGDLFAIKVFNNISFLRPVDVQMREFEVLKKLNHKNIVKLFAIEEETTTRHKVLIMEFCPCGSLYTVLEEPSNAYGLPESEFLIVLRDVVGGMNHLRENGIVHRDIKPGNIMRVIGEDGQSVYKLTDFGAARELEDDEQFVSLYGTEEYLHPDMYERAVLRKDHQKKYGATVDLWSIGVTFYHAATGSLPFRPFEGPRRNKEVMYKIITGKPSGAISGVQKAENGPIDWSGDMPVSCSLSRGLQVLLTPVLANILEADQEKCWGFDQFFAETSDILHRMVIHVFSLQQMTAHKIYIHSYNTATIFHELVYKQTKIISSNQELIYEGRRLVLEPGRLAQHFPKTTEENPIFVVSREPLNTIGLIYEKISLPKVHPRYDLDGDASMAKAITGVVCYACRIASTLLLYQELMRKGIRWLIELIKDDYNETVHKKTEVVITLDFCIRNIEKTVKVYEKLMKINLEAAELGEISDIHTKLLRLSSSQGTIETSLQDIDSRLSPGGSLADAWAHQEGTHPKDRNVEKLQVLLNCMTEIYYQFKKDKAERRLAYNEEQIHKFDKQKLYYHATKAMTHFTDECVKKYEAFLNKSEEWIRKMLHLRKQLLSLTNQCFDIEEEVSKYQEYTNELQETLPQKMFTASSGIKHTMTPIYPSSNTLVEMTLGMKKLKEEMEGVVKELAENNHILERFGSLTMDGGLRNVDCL
Method: as §1

S6Kbeta = biological target: T4, S6Kbeta (Homo sapiens, UniProt Q9UBS0)
T4 construct: purchased Reaction Biology Europe GmbH (formerly ProQinase)
T4 sequence (Q9UBS0 whole entry): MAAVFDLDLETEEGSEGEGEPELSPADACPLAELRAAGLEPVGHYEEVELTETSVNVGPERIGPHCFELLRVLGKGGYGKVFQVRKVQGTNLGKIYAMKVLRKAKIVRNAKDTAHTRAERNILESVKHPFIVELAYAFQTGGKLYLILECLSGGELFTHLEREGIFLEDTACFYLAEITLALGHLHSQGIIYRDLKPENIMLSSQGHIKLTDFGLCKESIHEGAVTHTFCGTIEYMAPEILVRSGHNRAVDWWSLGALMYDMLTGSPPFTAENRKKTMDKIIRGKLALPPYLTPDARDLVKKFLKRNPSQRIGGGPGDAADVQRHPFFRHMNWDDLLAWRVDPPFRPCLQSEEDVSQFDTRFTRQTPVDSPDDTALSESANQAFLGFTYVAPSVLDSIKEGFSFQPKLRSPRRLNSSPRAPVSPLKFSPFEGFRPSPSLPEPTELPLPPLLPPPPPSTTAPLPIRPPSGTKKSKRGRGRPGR
Method: as §1

SGK3 = biological target: T5, SGK3 (Homo sapiens, UniProt Q96BR1)
T5 construct: purchased Reaction Biology Europe GmbH (formerly ProQinase)
T5 sequence (Q96BR1 1-496): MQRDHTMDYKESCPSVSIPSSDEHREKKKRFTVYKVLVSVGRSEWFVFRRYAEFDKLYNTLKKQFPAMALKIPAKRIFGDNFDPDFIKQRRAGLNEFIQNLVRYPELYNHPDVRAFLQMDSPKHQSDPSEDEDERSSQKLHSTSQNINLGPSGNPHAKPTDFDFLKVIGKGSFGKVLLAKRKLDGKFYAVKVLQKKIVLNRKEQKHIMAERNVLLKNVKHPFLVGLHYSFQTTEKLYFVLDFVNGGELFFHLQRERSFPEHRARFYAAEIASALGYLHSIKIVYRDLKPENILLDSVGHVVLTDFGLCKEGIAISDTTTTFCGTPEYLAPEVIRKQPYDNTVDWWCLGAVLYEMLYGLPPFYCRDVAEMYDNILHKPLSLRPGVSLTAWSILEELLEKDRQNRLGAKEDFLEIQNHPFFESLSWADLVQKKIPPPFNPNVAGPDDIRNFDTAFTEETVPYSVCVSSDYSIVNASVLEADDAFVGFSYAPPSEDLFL
Method: as §1

PDGFRβ = biological target: T6, PDGFRβ (Homo sapiens, UniProt P09619)
T6 construct: purchased Reaction Biology Europe GmbH (formerly ProQinase)
T6 sequence (P09619 33-1106): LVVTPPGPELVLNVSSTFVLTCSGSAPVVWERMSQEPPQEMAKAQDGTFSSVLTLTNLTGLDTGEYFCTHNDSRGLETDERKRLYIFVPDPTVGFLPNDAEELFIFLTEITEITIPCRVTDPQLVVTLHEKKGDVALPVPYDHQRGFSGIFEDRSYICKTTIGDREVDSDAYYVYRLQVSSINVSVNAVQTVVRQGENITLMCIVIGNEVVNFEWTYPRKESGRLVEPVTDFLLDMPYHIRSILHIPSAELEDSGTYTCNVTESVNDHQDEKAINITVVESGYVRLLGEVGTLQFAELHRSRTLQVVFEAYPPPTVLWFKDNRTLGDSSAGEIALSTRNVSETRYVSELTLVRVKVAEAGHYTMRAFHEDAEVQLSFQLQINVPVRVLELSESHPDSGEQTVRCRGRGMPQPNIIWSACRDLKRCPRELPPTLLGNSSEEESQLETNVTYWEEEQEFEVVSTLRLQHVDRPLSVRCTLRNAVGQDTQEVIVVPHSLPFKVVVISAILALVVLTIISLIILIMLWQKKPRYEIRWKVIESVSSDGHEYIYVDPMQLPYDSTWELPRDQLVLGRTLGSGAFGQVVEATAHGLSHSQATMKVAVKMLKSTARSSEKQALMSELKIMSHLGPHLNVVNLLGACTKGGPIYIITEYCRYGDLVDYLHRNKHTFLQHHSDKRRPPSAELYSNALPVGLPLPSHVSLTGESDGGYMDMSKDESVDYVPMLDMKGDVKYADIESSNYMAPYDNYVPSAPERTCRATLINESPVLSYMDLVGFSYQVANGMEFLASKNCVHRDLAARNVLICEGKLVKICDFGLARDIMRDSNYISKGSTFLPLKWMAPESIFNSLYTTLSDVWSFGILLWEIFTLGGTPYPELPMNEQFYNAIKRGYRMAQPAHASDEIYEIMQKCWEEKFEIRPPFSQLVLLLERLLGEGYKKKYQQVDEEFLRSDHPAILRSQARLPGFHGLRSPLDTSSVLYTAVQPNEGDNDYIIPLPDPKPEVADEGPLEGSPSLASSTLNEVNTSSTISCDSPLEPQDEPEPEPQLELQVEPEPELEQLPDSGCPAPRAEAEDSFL
Method: as §1

MST1 = biological target: T7, MST1 (Homo sapiens, UniProt Q13043)
T7 construct: purchased Reaction Biology Europe GmbH (formerly ProQinase)
T7 sequence (Q13043 1-487): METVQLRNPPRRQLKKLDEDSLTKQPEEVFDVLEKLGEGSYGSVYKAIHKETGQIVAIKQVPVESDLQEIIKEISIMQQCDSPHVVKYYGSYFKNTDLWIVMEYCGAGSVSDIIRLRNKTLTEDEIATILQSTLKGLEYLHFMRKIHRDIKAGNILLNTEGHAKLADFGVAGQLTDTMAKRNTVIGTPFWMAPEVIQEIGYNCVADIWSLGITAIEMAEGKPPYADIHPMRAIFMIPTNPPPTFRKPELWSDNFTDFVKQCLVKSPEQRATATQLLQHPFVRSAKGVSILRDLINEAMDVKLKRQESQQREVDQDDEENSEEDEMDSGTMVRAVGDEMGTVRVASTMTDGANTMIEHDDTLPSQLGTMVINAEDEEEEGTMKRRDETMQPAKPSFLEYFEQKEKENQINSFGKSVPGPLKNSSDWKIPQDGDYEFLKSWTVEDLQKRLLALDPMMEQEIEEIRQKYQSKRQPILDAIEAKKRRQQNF
Method: as §1

PHKG1 = biological target: T8, PHKG1 (Homo sapiens, UniProt Q16816)
T8 construct: purchased Reaction Biology Europe GmbH (formerly ProQinase)
T8 sequence (Q16816 whole entry): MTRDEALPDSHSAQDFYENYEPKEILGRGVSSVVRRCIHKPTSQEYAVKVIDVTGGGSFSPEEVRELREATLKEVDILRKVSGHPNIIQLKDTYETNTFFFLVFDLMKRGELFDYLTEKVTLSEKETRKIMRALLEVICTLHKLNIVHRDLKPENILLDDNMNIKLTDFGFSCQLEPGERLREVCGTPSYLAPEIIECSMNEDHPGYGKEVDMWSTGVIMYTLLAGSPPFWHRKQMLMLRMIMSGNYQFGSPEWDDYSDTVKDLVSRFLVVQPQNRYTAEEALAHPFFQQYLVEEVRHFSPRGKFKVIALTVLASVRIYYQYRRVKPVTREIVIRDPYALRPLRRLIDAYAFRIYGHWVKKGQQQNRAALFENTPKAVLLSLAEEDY
Method: as §1

CDK6/CycD1 = biological target: T9, CDK6/CycD1 (Homo sapiens, UniProt Q00534)
T9 construct: purchased Reaction Biology Europe GmbH (formerly ProQinase)
Method: as §1

RIPK2 = biological target: T10, RIPK2 (Homo sapiens, UniProt O43353)
T10 construct: purchased Reaction Biology Europe GmbH (formerly ProQinase)
T10 sequence (O43353 whole entry): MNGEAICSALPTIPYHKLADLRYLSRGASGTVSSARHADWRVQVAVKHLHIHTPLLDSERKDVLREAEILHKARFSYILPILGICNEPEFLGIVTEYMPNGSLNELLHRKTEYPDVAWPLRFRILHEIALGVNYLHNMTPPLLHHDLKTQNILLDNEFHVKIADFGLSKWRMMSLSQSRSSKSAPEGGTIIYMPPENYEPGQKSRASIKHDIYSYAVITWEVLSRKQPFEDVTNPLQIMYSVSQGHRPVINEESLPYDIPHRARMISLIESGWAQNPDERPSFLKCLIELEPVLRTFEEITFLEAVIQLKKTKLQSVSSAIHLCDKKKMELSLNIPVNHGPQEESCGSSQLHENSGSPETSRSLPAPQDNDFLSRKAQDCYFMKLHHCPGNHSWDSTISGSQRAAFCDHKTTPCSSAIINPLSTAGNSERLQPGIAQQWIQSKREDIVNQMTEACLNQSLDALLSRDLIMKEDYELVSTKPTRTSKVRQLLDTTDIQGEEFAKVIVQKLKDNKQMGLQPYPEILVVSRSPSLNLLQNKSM
Method: as §1

TTBK2 = biological target: T11, TTBK2 (Homo sapiens, UniProt Q6IQ55)
T11 construct: purchased Reaction Biology Europe GmbH (formerly ProQinase)
T11 sequence (Q6IQ55 whole entry): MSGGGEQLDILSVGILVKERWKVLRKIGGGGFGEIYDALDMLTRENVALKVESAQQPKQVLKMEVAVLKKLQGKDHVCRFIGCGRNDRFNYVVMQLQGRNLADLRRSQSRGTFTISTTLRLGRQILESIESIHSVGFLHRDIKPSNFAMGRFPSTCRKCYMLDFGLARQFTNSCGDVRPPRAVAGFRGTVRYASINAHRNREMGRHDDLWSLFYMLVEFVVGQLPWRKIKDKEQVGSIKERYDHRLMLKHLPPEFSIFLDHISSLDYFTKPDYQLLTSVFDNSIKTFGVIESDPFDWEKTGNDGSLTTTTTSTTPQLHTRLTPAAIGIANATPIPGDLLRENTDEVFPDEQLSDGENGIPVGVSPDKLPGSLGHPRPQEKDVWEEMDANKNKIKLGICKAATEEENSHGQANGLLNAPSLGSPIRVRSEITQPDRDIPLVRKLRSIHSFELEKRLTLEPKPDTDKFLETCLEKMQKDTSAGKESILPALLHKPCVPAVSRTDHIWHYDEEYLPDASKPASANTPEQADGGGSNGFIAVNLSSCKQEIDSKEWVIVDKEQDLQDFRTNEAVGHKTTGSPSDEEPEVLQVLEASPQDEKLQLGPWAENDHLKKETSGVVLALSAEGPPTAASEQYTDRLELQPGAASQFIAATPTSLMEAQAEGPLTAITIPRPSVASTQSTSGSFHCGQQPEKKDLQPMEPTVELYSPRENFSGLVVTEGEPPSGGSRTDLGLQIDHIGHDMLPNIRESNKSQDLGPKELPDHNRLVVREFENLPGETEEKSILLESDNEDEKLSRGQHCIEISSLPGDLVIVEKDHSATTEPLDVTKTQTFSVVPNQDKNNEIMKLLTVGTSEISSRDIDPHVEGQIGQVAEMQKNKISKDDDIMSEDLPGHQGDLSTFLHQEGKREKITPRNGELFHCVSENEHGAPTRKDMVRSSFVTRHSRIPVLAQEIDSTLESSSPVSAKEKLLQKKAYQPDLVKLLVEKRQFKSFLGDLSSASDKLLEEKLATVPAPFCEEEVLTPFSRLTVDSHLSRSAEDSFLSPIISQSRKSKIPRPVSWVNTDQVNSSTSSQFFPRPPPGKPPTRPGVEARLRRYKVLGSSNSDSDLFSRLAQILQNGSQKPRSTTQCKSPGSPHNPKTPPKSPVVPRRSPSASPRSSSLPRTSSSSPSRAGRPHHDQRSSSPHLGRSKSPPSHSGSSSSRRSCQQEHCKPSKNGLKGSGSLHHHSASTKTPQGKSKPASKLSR
Method: as §1

Q: Which residual kinase activity (PKCγ; 0.03 µM) does the source give for `COc1ccnc2[nH]cc(-c3cc(N)nc(N)c3)c12` [meriolin 16] here?
A: 99 % of control

Q: What about the residual kinase activity (PKCγ; 0.3 µM) of the same compound?
A: 54 % of control

Q: And the residual kinase activity (CDK5/p35NCK; 0.03 µM)?
A: 7 % of control

Q: What about the residual kinase activity (CDK5/p35NCK; 0.3 µM) of the same compound?
A: 1 % of control

Q: What about the residual kinase activity (TBK1; 0.03 µM) of the same compound?
A: 114 % of control

Q: And the residual kinase activity (TBK1; 0.3 µM)?
A: 99 % of control

Q: What about the residual kinase activity (S6Kbeta; 0.03 µM) of the same compound?
A: 89 % of control

Q: What about the residual kinase activity (S6Kbeta; 0.3 µM) of the same compound?
A: 103 % of control

Q: What about the residual kinase activity (SGK3; 0.03 µM) of the same compound?
A: 94 % of control

Q: And the residual kinase activity (SGK3; 0.3 µM)?
A: 84 % of control

Q: And the residual kinase activity (PDGFRβ; 0.03 µM)?
A: 93 % of control

Q: And the residual kinase activity (PDGFRβ; 0.3 µM)?
A: 75 % of control

Q: And the residual kinase activity (MST1; 0.03 µM)?
A: 88 % of control

Q: What about the residual kinase activity (MST1; 0.3 µM) of the same compound?
A: 49 % of control

Q: What about the residual kinase activity (PHKG1; 0.03 µM) of the same compound?
A: 85 % of control

Q: What about the residual kinase activity (PHKG1; 0.3 µM) of the same compound?
A: 39 % of control

Q: What about the residual kinase activity (CDK6/CycD1; 0.03 µM) of the same compound?
A: 93 % of control

Q: And the residual kinase activity (CDK6/CycD1; 0.3 µM)?
A: 51 % of control

Q: And the residual kinase activity (RIPK2; 0.03 µM)?
A: 95 % of control

Q: And the residual kinase activity (RIPK2; 0.3 µM)?
A: 78 % of control

Q: What about the residual kinase activity (TTBK2; 0.03 µM) of the same compound?
A: 96 % of control

Q: What about the residual kinase activity (TTBK2; 0.3 µM) of the same compound?
A: 91 % of control

Q: Which residual kinase activity (PKCγ; 0.3 µM) does the source give for `c1ccc(CNc2cc(-c3c[nH]c4ncccc34)ccn2)cc1` [meriolin 36] here?
A: 33 % of control

Q: And the residual kinase activity (PKCγ; 3 µM)?
A: 5 % of control

Q: What about the residual kinase activity (CDK5/p35NCK; 0.3 µM) of the same compound?
A: 0 % of control

Q: What about the residual kinase activity (CDK5/p35NCK; 3 µM) of the same compound?
A: 0 % of control

Q: And the residual kinase activity (TBK1; 0.3 µM)?
A: 48 % of control

Q: And the residual kinase activity (TBK1; 3 µM)?
A: 10 % of control

Q: And the residual kinase activity (S6Kbeta; 0.3 µM)?
A: 87 % of control

Q: What about the residual kinase activity (S6Kbeta; 3 µM) of the same compound?
A: 67 % of control

Q: What about the residual kinase activity (SGK3; 0.3 µM) of the same compound?
A: 81 % of control

Q: And the residual kinase activity (SGK3; 3 µM)?
A: 27 % of control

Q: What about the residual kinase activity (PDGFRβ; 0.3 µM) of the same compound?
A: 24 % of control

Q: What about the residual kinase activity (PDGFRβ; 3 µM) of the same compound?
A: 4 % of control

Q: And the residual kinase activity (MST1; 0.3 µM)?
A: 4 % of control

Q: And the residual kinase activity (MST1; 3 µM)?
A: 1 % of control

Q: And the residual kinase activity (PHKG1; 0.3 µM)?
A: 16 % of control

Q: And the residual kinase activity (PHKG1; 3 µM)?
A: 2 % of control

Q: And the residual kinase activity (CDK6/CycD1; 0.3 µM)?
A: 2 % of control

Q: And the residual kinase activity (CDK6/CycD1; 3 µM)?
A: 1 % of control

Q: And the residual kinase activity (RIPK2; 0.3 µM)?
A: 61 % of control

Q: And the residual kinase activity (RIPK2; 3 µM)?
A: 33 % of control

Q: And the residual kinase activity (TTBK2; 0.3 µM)?
A: 93 % of control

Q: What about the residual kinase activity (TTBK2; 3 µM) of the same compound?
A: 56 % of control
